Results: EPA's ToxValDB 9.5
Several values for one entry are separate records, joined by “and”; a condition that tells them apart may be missing. Equal values may be shown once.

Experiments:
[1] = system: Mus musculus; settings: short-term, inhalation, M, immunological
[2] = system: Rattus norvegicus; settings: subchronic, oral, gavage, M/F; for NOEL: duration: 13 weeks, Fischer 344
[3] = system: Mus musculus
[4] = system: Rattus norvegicus; settings: for LC50 / LD50: acute
[5] = system: Mus musculus; settings: repeat dose other; oral
[6] = system: Cavia porcellus; settings: acute; Inhalation; Guinea Pig
[7] = system: Homo sapiens; settings: clinical; duration: 1 days; inhalation; M/F; respiratory
[8] = system: Oryctolagus sp.; settings: oral, gavage, New Zealand
[9] = system: Canidae; settings: oral, diet, Beagle
[10] = system: Oryctolagus sp.; settings: acute; dermal
[11] = system: Oryctolagus sp.; settings: developmental, M/F
[12] = system: Rattus norvegicus
[13] = system: Rattus norvegicus; remark: listed apart in the source
[14] = system: Rattus norvegicus; settings: chronic; duration: 16 weeks; oral; diet; Kidney: Degeneration
[15] = system: Canidae; settings: chronic, duration: 2 years, oral, diet, M/F, Dog Other
[16] = system: Canidae; settings: chronic, oral, diet, Dog Other
[17] = reproduction developmental, duration: 6 days, inhalation, Crl: CFW(SW)Br, Charles River Laboratories, generation: F1
[18] = reproduction developmental, inhalation, M, CD1
[19] = chronic, oral, F, liver and kidney toxicity
[20] = oral, Reduced body weight gain (maternal), increased resorption, reduced body weight (fetal), delayed ossification
[21] = reduced body weight gain, increased liver and kidney weight, and rbc cholinesterase inhibition

`c1ccccc1` [Benzene] showed an LOAEL ([1]; duration: 6 days, whole body, C57BL/6) of 32.6 mg/m3, an LOAEL ([1]; duration: 20 days, C57Bl/6) of 31.9 mg/m3 and an NOEL ([2]; Deaths + Body Weight Changes: decrease + Hematology: WBC decrease, Lympho decrease + Histopathology: Spleen-B-cell depletion Spleen-…) of less than 25 mg/kg-day. For the same compound, the LOAEL ([3]; repeat dose other, inhalation, CD1) was 31.9 mg/m3, the LOAEL [3, 17] was 63.9 mg/m3 and the NOAEL [3, 17] was 31.9 mg/m3. The NOAEL ([3]; reproduction developmental, duration: 6 days, inhalation, F, Crl: CFW(SW)Br, Charles River Laboratories) was 63.9 mg/m3, the LOAEL ([3]; reproduction developmental, inhalation, F, CD1) was 958 mg/m3 and the LOAEL [3, 18] was 958 mg/m3. For the same compound, the NOAEL [3, 18] was 95.8 mg/m3, the LC50 ([4]; inhalation, Sprague-Dawley) was 43800 mg/m3 and the LOAEL [5] was 264 mg/kg-day. For the same compound, the NOAEL [5] was 26.4 mg/kg-day.

`CCCCOCCOCCOCOCCOCCOCCCC` [Bis(butoxyethoxyethoxy)methane] was tested, and the LC50 ([3]; acute, Inhalation, Swiss-Webster) was greater than 200 µg/mL, the LC50 [6] was greater than 200 µg/mL and the LC50 ([4]; Inhalation, Wistar) was greater than 200 µg/mL. The LD50 ([4]; dermal, occlusive, Sprague-Dawley) was greater than 2000 mg/kg, the LD50 ([4]; oral, Sprague-Dawley) was greater than 2000 mg/kg and the NOAEL ([4]; developmental, duration: 9 weeks, oral, gavage, Sprague-Dawley) was 100 mg/kg-day. It also gave an NOAEL ([4]; reproduction developmental, duration: 9 weeks, oral, gavage, F, Sprague-Dawley) of 100 mg/kg-day, an NOAEL ([4]; reproduction developmental, duration: 9 weeks, oral, gavage, Sprague-Dawley) of 100 mg/kg-day and an NOAEL ([4]; reproduction developmental, duration: 9 weeks, oral, gavage, Sprague-Dawley, generation: F0) of 100 mg/kg-day. It also gave an NOAEL ([4]; reproduction developmental, duration: 9 weeks, oral, gavage, Sprague-Dawley, generation: F1) of 100 mg/kg-day.

`[B]` [Boron] showed an NOAEL [7] of 0.8 mg/m3 and an NOAEL ([8]; developmental, duration: 13 days, M/F, developmental) of 22 mg/kg-day.

`CCC(CC)C(C)COC(=O)c1ccccc1C(=O)OCC(C)C(CC)CC` (stereo not drawn) [Di-C7-9-branched and linear alkyl phthalates] showed an LD50 ([3]; acute, oral) greater than 26000 mg/kg, an NOAEL ([9]; chronic, duration: 14 weeks) of 100 mg/kg-day and an LD50 ([4]; oral) greater than 22000 mg/kg. The “NOAEL (% diet)” value ([4]; reproduction developmental, oral, diet, Sprague-Dawley, generation: F0) was 1, the “NOAEL (% diet)” value ([4]; reproduction developmental, oral, diet, Sprague-Dawley, generation: F1) was 1 and the NOAEL ([4]; short-term, duration: 4 weeks, oral, diet) was 100 mg/kg-day.

`CC(C)CCCCCCOC(=O)CCCCC(=O)OCCCCCCC(C)C` [Diisononyl adipate] was tested, and the LD50 [10] was greater than 3160 mg/kg, the NOAEL ([9]; subchronic, duration: 13 weeks) was 274 mg/kg-day and the LD50 ([4]; oral, gavage) was greater than 10000 mg/kg. It also gave an NOAEL ([4]; subchronic, duration: 13 weeks, oral, diet) of 500 mg/kg-day.

In the case of `CCc1ccccc1` [Ethylbenzene], the NOAEL ([11]; inhalation, developmental toxicity) is reported as 434 mg/m3, the LOAEL [12, 19] is reported as 408 mg/kg-day and the NOEL [12, 19] is reported as 97.1 mg/kg-day and 136 mg/kg-day. It also gave an LOAEL ([12]; developmental, inhalation, M/F, developmental toxicity) of 4340 mg/m3, an LOAEL ([13]; chronic, duration: 104 weeks, inhalation, M/F, Fischer 344, renal) of 326 mg/m3 and an NOAEL ([2]; duration: 90 days, Wistar, Clinical Observation: Salivation Discolored urine + Functional Observational Battery: Decreased landing foot-splay + Body Weight Changes: …) of 75 mg/kg-day.

`ClC(Cl)(Cl)C(Cl)(Cl)Cl` [Hexachloroethane] gave an NOAEL ([12]; subchronic, duration: 6 weeks, inhalation, M/F, Sprague-Dawley, neurotoxicity: tremors and ruffled pelt) of 465 mg/m3, an NOAEL ([8]; short-term, duration: 12 days, M, hepatic) of 100 mg/kg-day and an NOAEL ([13]; chronic, duration: 16 weeks, oral, diet, M/F, Fischer 344, hepatic) of 1 mg/kg-day. It also gave an NOAEL ([13]; reproduction developmental, duration: 10 days, inhalation, F, Sprague-Dawley, neurological) of 465 mg/m3, an NOAEL ([13]; subchronic, duration: 6 weeks, inhalation, M/F, Sprague-Dawley, neurological) of 465 mg/m3 and an NOEL ([2]; Deaths + Clinical Observation: Hyperactivity Convulsions + Body Weight Changes: decrease + Relative Organ Weight: Liver increase, Brain …) of less than 47 mg/kg-day. The NOAEL [14] was 1 mg/kg-day.

Compound `CC(C)(C)c1cc(CCC(=O)OCC(COC(=O)CCc2cc(C(C)(C)C)c(O)c(C(C)(C)C)c2)(COC(=O)CCc2cc(C(C)(C)C)c(O)c(C(C)(C)C)c2)COC(=O)CCc2cc(C(C)(C)C)c(O)c(C(C)(C)C)c2)cc(C(C)(C)C)c1O` [Irganox 1010] has an LD50 [10] greater than 3160 mg/kg, an NOAEL ([3]; developmental, duration: 10 days, oral, gavage) of 1000 mg/kg-day and an NOAEL ([3]; developmental, duration: 10 days, oral, gavage, NMRI) of 1000 mg/kg-day. The NOAEL ([3]; reproduction developmental, duration: 10 days, oral, gavage, F) was 1000 mg/kg-day, the NOAEL ([9]; subchronic, duration: 3 months) was 322 mg/kg-day and the LC50 ([4]; inhalation) was greater than 1.96 µg/mL. For the same compound, the LD50 ([4]; oral) was greater than 5000 mg/kg, the NOAEL ([4]; developmental, duration: 10 days, oral, gavage, Sprague-Dawley) was 1000 mg/kg-day and the NOAEL ([4]; reproduction developmental, duration: 10 months, oral, diet, generation: F0) was 10000 ppm. The NOAEL ([4]; reproduction developmental, duration: 10 months, oral, diet, generation: F1) was 10000 ppm, the NOAEL ([4]; reproduction developmental, duration: 10 months, oral, diet, generation: F2) was 10000 ppm and the NOAEL ([4]; subchronic, duration: 3 months, oral, diet, Sprague-Dawley) was 2500 mg/kg-day.

With `[Hg+2].[S-2]` [Mercury sulfide (HgS)] the NOAEL [5] was 13.2 mg/kg-day.

`C#CCOS(=O)OC1CCCCC1Oc1ccc(C(C)(C)C)cc1` (stereo not drawn) [Propargite] was tested, and the LEL [11, 20] was 6 mg/kg-day, the NOEL [11, 20] was 2 mg/kg-day and the NOEL ([15]; No adverse effects observed at the HDT) was 22.5 mg/kg-day.

Compound `CCOP(=S)(OCC)SCSC(C)(C)C` [Terbufos] has an NOAEL ([16]; duration: 6 months, Cholinesterase: Inhibition) of 0.0025 mg/kg-day.

`COP(=O)(OC)O/C(=C/Cl)c1cc(Cl)c(Cl)cc1Cl` [Tetrachlorovinphos] gave an LEL [15, 21] of 50 mg/kg-day, an NOEL [15, 21] of 3.13 mg/kg-day and an NOEL ([16]; duration: 2 years, Kidney: Increased weight + Liver: Increased weight) of 3.1 mg/kg-day.
